# Calls of active or inactive are those of the source. The rule behind the calls is not given here.
# Assays:
# [1] = tested on: A2780; assay: Antiproliferative activity against human A2780 cells assessed as growth inhibition incubated for 72 hrs by celltiter-glo assay; assay type: functional
# [2] = tested on: MDA-MB-453; assay: Antiproliferative activity against human MDA-MB-453 cells assessed as of viable cell signal at minimum maximum cell growth incubated for 72 hrs by celltiter-glo assay relative to control; assay type: functional
# [3] = tested on: SK-OV-3; assay: Antiproliferative activity against human SK-OV-3 cells assessed as viable cell signal at maximum growth inhibition incubated for 72 hrs by celltiter-glo assay relative to control; assay type: functional
# [4] = tested on: COLO 205; assay: Antitumor activity against human COLO 205 cells xenografted in Nude mouse assessed as increase in pIk1 level at 50 to 100 mg/kg, ip measured at 24 to 48 hrs by immunohistochemistry analysis; assay type: functional, organism-based; settings: dose 50-100 mg/kg, time 24-48 hrs
# [5] = tested on: LoVo; assay: Antiproliferative activity against human LoVo cells assessed as viable cell signal at maximum growth inhibition incubated for 72 hrs by celltiter-glo assay relative to control; assay type: functional
# [6] = tested on: NCI-H358; assay: Antiproliferative activity against human NCI-H358 cells assessed as growth inhibition incubated for 72 hrs by celltiter-glo assay; assay type: functional
# [7] = tested on: SW480; assay: Antiproliferative activity against human SW480 cells assessed as viable cell signal at maximum growth inhibition incubated for 72 hrs by celltiter-glo assay relative to control; assay type: functional
# [8] = tested on: A704; assay: Antiproliferative activity against human A704 cells assessed as viable cell signal at maximum growth inhibition incubated for 72 hrs by celltiter-glo assay relative to control; assay type: functional
# [9] = tested on: NCI-H522; assay: Antiproliferative activity against human NCI-H522 cells assessed as of viable cell signal at minimum maximum cell growth incubated for 72 hrs by celltiter-glo assay relative to control; assay type: functional
# [10] = tested on: A-431; assay: Antiproliferative activity against human A-431 cells assessed as viable cell signal at maximum growth inhibition incubated for 72 hrs by celltiter-glo assay relative to control; assay type: functional
# [11] = tested on: DLD-1; assay: Antiproliferative activity against human DLD-1 cells assessed as of viable cell signal at minimum maximum cell growth incubated for 72 hrs by celltiter-glo assay relative to control; assay type: functional
# [12] = tested on: ZR-75-1; assay: Growth inhibition of human ZR-75-1 cells assessed as caspase-3/caspase-7 activation at 0.1 nmol/L incubated for 5 to 7 days by […]; assay type: functional, cell-based; settings: time 5-7 day
# [13] = tested on: SK-BR-3; assay: Antiproliferative activity against human SK-BR-3 cells assessed as of viable cell signal at minimum maximum cell growth incubated for 72 hrs by celltiter-glo assay relative to control; assay type: functional
# [14] = tested on: MDA-MB-468; assay: Antiproliferative activity against human MDA-MB-468 cells assessed as of viable cell signal at minimum maximum cell growth incubated for 72 hrs by celltiter-glo assay relative to control; assay type: functional
# [15] = tested on: COLO 205; assay: Antitumor activity against human COLO 205 cells xenografted in Nude mouse assessed as increase in pIk1 level at 50 mg/kg, ip measured at 24 hrs by immunohistochemistry analysis; assay type: functional, organism-based
# [16] = tested on: MX1; assay: Antiproliferative activity against human MX1 cells assessed as growth inhibition incubated for 72 hrs by celltiter-glo assay; assay type: functional
# [17] = tested on: HCT-15; assay: Antiproliferative activity against human HCT-15 cells assessed as of viable cell signal at minimum maximum cell growth incubated for 72 hrs by celltiter-glo assay relative to control; assay type: functional
# [18] = target: Calcium/calmodulin-dependent protein kinase type II subunit beta (Homo sapiens) (UniProt Q13554); assay: Inhibition of recombinant human CaMKII-beta at 10 uM relative to control
# Calcium/calmodulin-dependent protein kinase type II subunit beta (Homo sapiens), sequence (Q13554 whole entry): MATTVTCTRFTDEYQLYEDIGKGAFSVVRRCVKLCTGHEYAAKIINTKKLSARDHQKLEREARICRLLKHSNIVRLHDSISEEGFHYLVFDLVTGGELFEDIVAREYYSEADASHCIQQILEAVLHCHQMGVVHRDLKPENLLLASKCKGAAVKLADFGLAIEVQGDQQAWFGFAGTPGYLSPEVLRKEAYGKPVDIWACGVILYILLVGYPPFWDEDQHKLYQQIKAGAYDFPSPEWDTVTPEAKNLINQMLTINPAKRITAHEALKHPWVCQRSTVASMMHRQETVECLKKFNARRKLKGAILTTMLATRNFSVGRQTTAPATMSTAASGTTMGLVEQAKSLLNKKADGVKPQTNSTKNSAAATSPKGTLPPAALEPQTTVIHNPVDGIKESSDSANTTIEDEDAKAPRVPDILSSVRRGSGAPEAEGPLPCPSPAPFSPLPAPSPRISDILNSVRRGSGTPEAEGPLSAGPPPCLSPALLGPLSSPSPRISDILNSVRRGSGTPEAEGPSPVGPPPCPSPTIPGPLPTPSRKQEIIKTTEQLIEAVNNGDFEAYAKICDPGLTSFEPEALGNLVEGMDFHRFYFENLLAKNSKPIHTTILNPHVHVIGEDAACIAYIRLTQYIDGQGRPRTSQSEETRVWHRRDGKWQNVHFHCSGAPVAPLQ
# [19] = tested on: COLO 205; assay: Antitumor activity against human COLO 205 cells xenografted in Nude mouse assessed as increase in pIk1 level at 50 to 100 mg/kg, ip administered one dose every 2 day repeated for 12 days by immunohistochemistry analysis; assay type: functional, organism-based; settings: dose 50-100 mg/kg, time 12.0 day
# [20] = tested on: U2OS; assay: Induction of mitotic arrest in human U2OS cells expressing fused cyclin B1-GFP at 10 to 250 nmol/L incubated for 24 hrs by image based analysis; assay type: functional, cell-based; settings: dose 10-250 nmol/L
# [21] = tested on: NCI-H157; assay: Antiproliferative activity against human NCI-H157 cells assessed as viable cell signal at maximum growth inhibition incubated for 72 hrs by celltiter-glo assay relative to control; assay type: functional
# [22] = tested on: HCT-116; assay: Antiproliferative activity against human HCT-116 cells assessed as of viable cell signal at minimum maximum cell growth incubated for 72 hrs by celltiter-glo assay relative to control; assay type: functional
# [23] = tested on: DLD-1; assay: Antiproliferative activity against human DLD-1 cells assessed as growth inhibition incubated for 72 hrs by celltiter-glo assay; assay type: functional
# [24] = tested on: HL-60; assay: Antiproliferative activity against human HL-60 cells assessed as viable cell signal at maximum growth inhibition incubated for 72 hrs by celltiter-glo assay relative to control; assay type: functional
# [25] = tested on: DU-145; assay: Antiproliferative activity against human DU-145 cells assessed as growth inhibition incubated for 72 hrs by celltiter-glo assay; assay type: functional
# [26] = tested on: NCI-H358; assay: Antiproliferative activity against human NCI-H358 cells assessed as of viable cell signal at minimum maximum cell growth incubated for 72 hrs by celltiter-glo assay relative to control; assay type: functional
# [27] = tested on: MX1; assay: Antiproliferative activity against human MX1 cells assessed as viable cell signal at maximum growth inhibition incubated for 72 hrs by celltiter-glo assay relative to control; assay type: functional
# [28] = tested on: COLO 205; assay: Antiproliferative activity against human COLO 205 cells assessed as growth inhibition incubated for 72 hrs by celltiter-glo assay; assay type: functional
structure (smiles),measurement,setting,value
C[C@@H](Oc1cc(-n2cnc3ccc(CN4CCN(C)CC4)cc32)sc1C(N)=O)c1ccccc1C(F)(F)F [GSK-461364],GI50,[1],28.1 nM
same,Emin,[2],179.6%
same,Emax,[3],345%
same,Activity,[4],Active
same,Emax,[5],400%
same,GI50,[6],13.4 nM
same,Emax,[7],512%
same,Emax,[8],255%
same,Emin,[9],125%
same,Emax,[10],820%
same,Emin,[11],441.3%
same,Activity,[12],Active
same,Emin,[13],54.6%
same,Emin,[14],182.2%
same,Activity,[15],Active
same,GI50,[16],12.1 nM
same,Emin,[17],75%
same,inhibition,[18],56%
same,Activity,[19],Active
same,Activity,[20],inactive
same,Emax,[21],847%
same,Emin,[22],157.3%
same,GI50,[23],48.9 nM
same,Emax,[24],191%
same,GI50,[25],24.2 nM
same,Emin,[26],150%
same,Emax,[27],498%
same,GI50,[28],14.2 nM
